“And” between values parts separate entries of the source, which are not always exact repeats. Equal entries are not always repeated. Marks after values point to notes of the source that are not given here.

Assay [1] has as its system Six pathogenic and spoilage bacteria, commonly found in meat and meat products. In words: MIC in artificial culture media (1 log reduction). The format is cell-based. As for the experimental part: The concentration ot each active compound added to the meat samples was based on results obtained in a previous experiment. These concentrations represent the minimum inhibitory concentrations (MIC) of the active compounds required to be present in artificial culture media in order to reduce by 1 log the number of bacteria in culture. Six pathogenic and spoilage bacteria, commonly found in meat and meat products, were tested. […] The concentration used for carnosine (1.0%) was selected from the literature (Sebranek, 1999). The concentrations of BHA (0.01%), BHT (0.01%), EDTA (100 ppm), and tetrasodium pyrophosphate (0.1%) corresponded to the concentrations recommended by the Canadian Food Inspection Agency (CFIA).
This value was detennined by testing six pathogenic and spoilage bacteria, commonly found in meat and meat products.

For assay [2], the system named is E. coli. In words: MIC (D10 %) of active compounds in ground beef, E. coli. The class given is cell-based, Escherichia coli (ATCC 25922). The note with it: non-irradiated ground beef, 10^5 CFU/g, stored at 4° C. for 24 hours; % w/w or v/w. As to the method:
(§1) Escherichia coli (ATCC 25922) and Salmonella typhi (ATCC 19430) were obtained from the American Type Culture Collection (Rockville, Md., USA) and maintained at −80° C. in Tryptic Soy Broth (TSB; Difco Laboratory, Detroit, Mich.) containing glycerol (10%; v/v). Before each experiment, stock cultures were subcultured through two consecutive 24 h growth cycles in TSB at 35° C. to obtain working cultures containing approximately 10^9 UCF/ml for E. coli and S. typhi.
(§2) Samples were homogenised for 2 min in sterile peptone water (0.1%) using a Lab-blender 400 stomacher (Laboratory Equipment, London, UK). From this mixture, serial dilutions were prepared and appropriate ones were pour-plated in tryptic soy agar (TSA) (Difco, Laboratories, Detroit, Mich., USA) and incubated at 35° C., 24 hours for the numeration of E. coli and S. typhi.
(§3) D10 deteriiination: The kinetics of bacteria destruction by irradiation with or without the active compounds and under different packaging conditions was evaluated by linear regression. Bacterial counts (log CFU/ml) were plotted against irradiation doses or compound concentrations and the D10 values were calculated using SigmaPlot program. Statistical analysis was done using SPSS program. The Duncan test was used with a probability of 0.05.
(§4) The MIC values for the active compounds were determined on the basis of their antibacterial effectiveness in meat. Concentrations retained were those to reduce by 1 log CFU the population of E. coli or S. typhi in ground beef. Ground beef samples weighing 200 g were contaminated with working cultures of E. coli or S. typhi to obtain a final concentration of 10^5 CFU/g. The ground beef samples containing micro-organisms was mixed during 3 minutes at medium speed in a 4L-conmmercial blender (Waring Products, New Hartford, Col., USA) and different concentrations of the active compounds were incorporated, followed by another 3 minutes period mixing. Sterile petri plates (60×15 mm) were filled with ground beef samples containing micro-organisms and different concentrations of active compounds in portion of 25 g each and stored at 4° C. for 24 hours.
(§5) In addition to the above compounds, minimal concentrations of different types of commercial Herbalox® and Duralox® required to reduce by 1 log the bacterial population of E. coli in ground beef were evaluated. […] However, an estimation of the minimal concentration was calculated using the slope of the curve.

In assay [3] the test system is S. typhi. In words: MIC (D10 %) of active compounds in ground beef, S. typhi. The class given is cell-based, Salmonella typhi (ATCC 19430). The note with it: non-irradiated ground beef, 10^5 CFU/g, stored at 4° C. for 24 hours; % w/w or v/w. As for the experimental part:
as §1, §2, §3, §4, §5

Assay [4] deals with E. coli. In words: Irradiation sensitivity of E. coli in chicken breast. The note with it: trans-cinnamaldehyde 0.050%, thymol 0.038%, tetrasodium pyrophosphate 0.003%, carvacrol 0.029%; for D10(kGy) / Increase in Sensitivity: chicken breast; for D10(kGy): 4° C.; for Increase in Sensitivity: vs control. The format is cell-based, Escherichia coli (ATCC 25922).
Assay [5] relates to S. typhi. In words: Irradiation sensitivity of S. typhi in chicken breast. The class given is cell-based, Salmonella typhi (ATCC 19430). The note with it: for D10(kGy) / Increase in Sensitivity: chicken breast; for D10(kGy): 4° C.; for D10(kGy) / irradiation dose necessary to completely eliminate S. typhi from the chicken breast / Increase in Sensitivity: trans-cinnamaldehyde 0.030%, tetrasodium pyrophosphate 0.003%, carvacrol 0.038%, thymol […]; for factor by which the effect was reduced in the chicken breast: concentration of 1/30 of the MIC value in ground beef, compared with ground beef at MIC; for Increase in Sensitivity: vs control.

For assay [6], the system named is E. coli. In words: Shelf life study, E. coli in ground beef irradiated at 0.30 kGy. The class given is cell-based, Escherichia coli. The note with it: stored at 4° C., trans-cinnamaldehyde […], thymol 1.15%, carvacrol […]. As to the method: Irradiation treatments of ground beef samples for D10 and shelf life determination were performed using UC-15B irradiator (MDS-Nordion International Inc., Kanata, ON, Canada) equipped with a ^60 Co source at a dose rate of 14.42 kGy/h). Irradiation doses used for D10 determination were ranged from 0.25 to 0.55 kGy for E. coli, from 0.50 to 2.0 kGy for S. typhi, and from 0.5 to 2.5 kGy for the mixture of indigenous microorganisms of ground beef. The shelf life study was performed on samples irradiated at 0.30, 0.85, and 1.75 kGy for E. coli, S. typhi, and the mixture of indigenous microorganisms of ground beef, respectively. For each active compound concentration tested, a group of non-irradiated samples sened as a control. For D10 determination, samples were analysed immediately after irradiation. For shelf life studies, samples were stored at 4° C. and analysed periodically.
Microbial analysis was performed by homogenising the samples for 2 mn in sterile peptone water (0.1%) using a Lab-blender 400 stomacher (Laboratory Equipment, London, UK). From this mixture, serial dilutions were prepared and appropriate ones were pour-plated in tryptic soy agar (TSA) (Difco, Laboratories, Detroit, Mich., USA) and incubated at 35° C., 24 hours for the numeration of E. coli and S. typhi. For the ground beef broth, the incubation was performed on Plate Count Agar (PCA; Difco) at 35° C. for 48 h for the numeration mesophilic bacteria, and at 7° C. for 10 days for the numeration of psychrotrophic bacteria. Enterobacteriaceae were numerated on Violet Red Bile Glucose Agar (VRBGA; Difco) 35° C. for 48 hours.
A shelf life study was undertaken to evaluate the radiation sensitivity during refrigerated storage conditions. Ground beef samples contaminated with E. coli, S. typhi, or a mixture of indigenous micro-organisms were irradiated in presence or absence of selected active compounds. […]

Assay [7] deals with S. typhi. In words: Irradiation sensitivity (D10) of S. typhi in ground beef. The format is cell-based, Salmonella typhi (ATCC 19430).
[8] abbreviates: ground beef, air, 4° C., carvacrol 1.0% alone or with ascorbic acid 0.5% and/or tetrasodium pyrophosphate 0.1%.

Regarding `Cc1ccc(C(C)C)c(O)c1` [Thymol, thymol], the “Mean values of MIC (concentration required in artificial culture media to reduce by 1 log the number of bacteria)” value in assay [1] is 0.1%. The “D10 (%): minimal concentration of active compound required to reduce E. coli population by 1 log in ground beef” value in the assay on E. coli [2] is on record as 1.14 ± 0.05^a %. Also, the “D10 (%): minimal concentration of active compound required to reduce S. typhi population by 1 log in ground beef” value in the assay on S. typhi [3] is reported as 1.60 ± 0.00^ab %. Also, in the assay with E. coli [4], the “D10(kGy)” value is listed as 0.131 ± 0.007^b kGy, the “irradiation dose necessary to completely eliminate E. coli from the chicken breast” value was “around 0.75 kGy” and the “Increase in Sensitivity” value stood at 9.7%. In addition, in the assay on S. typhi [5], the “D10(kGy)” value was 0.570 ± 0.065^b kGy, the “factor by which the effect was reduced in the chicken breast” value (from here on “factor by which the effect was reduced”) was 5, the “irradiation dose necessary to completely eliminate S. typhi from the chicken breast” value came out at 2.8 kGy and the “Increase in Sensitivity” value worked out at 11.4%. Also, the “days of storage after which complete inhibition was observed” value in the assay with E. coli [6] came to 15 days.
As to `O=C/C=C/c1ccccc1` [Trans-cinnamaldehyde, trans-cinnamaldehyde], the “Mean values of MIC (concentration required in artificial culture media to reduce by 1 log the number of bacteria)” value in assay [1] is 0.25% and 0.025%. The “D10 (%): minimal concentration of active compound required to reduce E. coli population by 1 log in ground beef” value in the assay on E. coli [2] is given as 1.57 ± 0.10^b %. In the assay on S. typhi [3], the “D10 (%): minimal concentration of active compound required to reduce S. typhi population by 1 log in ground beef” value is listed as 0.89 ± 0.03^a %. Further, the “D10(kGy)” value in the assay with S. typhi [7] (ground beef packed under MAP (60% O2-30% CO2-10% N2), 4° C., trans-cinnamaldehyde […]) is given as 0.110 ± 0.002^b* kGy; with S. typhi [7] (ground beef packed under air, 4° C., trans-cinnamaldehyde […]), 0.356 ± 0.005^a* kGy; in the assay on E. coli [4], 0.098 ± 0.006^a kGy; in the assay with S. typhi [5], 0.341 ± 0.018^a kGy. For the same molecule, the “Increase in Sensitivity” value in the assay with S. typhi [7] (ground beef under MAP, trans-cinnamaldehyde […] vs control under the same atmosphere) is listed as 50.2%; with S. typhi [7] (ground beef under air, trans-cinnamaldehyde […] vs control under the same atmosphere), 32.3%; in the assay with E. coli [4], 32.4%; in the assay on S. typhi [5], 47.0%. The “increase in irradiation sensitivity by modification of the packaging atmosphere” value in the assay on S. typhi [7] (ground beef, MAP vs air, both with trans-cinnamaldehyde […]) is 69.1%. Moreover, the “irradiation dose required to completely eliminate S. typhi from the ground beef” value in the assay on S. typhi [7] (under MAP, trans-cinnamaldehyde […]) is 0.6 kGy; in the assay with S. typhi [7] (under air, trans-cinnamaldehyde […]), “around 2 kGy”. Besides, the “irradiation dose required to completely eliminate S. typhi from ground beef” value in the assay on S. typhi [7] (under air, trans-cinnamaldehyde 0.89%) was 0.75 kGy. Also, the “irradiation dose necessary to completely eliminate E. coli from the chicken breast” value in the assay with E. coli [4] was 0.75 kGy. In the assay on S. typhi [5], the “factor by which the effect was reduced” value was 1.5. The “irradiation dose necessary to completely eliminate S. typhi from the chicken breast” value in the assay with S. typhi [5] was 1.4 kGy. Also, the “days of storage after which complete inhibition was observed” value in the assay on E. coli [6] is 15 days.
Consider `Cc1ccc(C(C)C)cc1O` [Carvacrol, carvacrol], for which the “Mean values of MIC (concentration required in artificial culture media to reduce by 1 log the number of bacteria)” value in assay [1] came to 0.125%. In addition, in the assay with E. coli [2], the “D10 (%): minimal concentration of active compound required to reduce E. coli population by 1 log in ground beef” value is reported as 0.88 ± 0.12^a %. For the same molecule, the “D10 (%): minimal concentration of active compound required to reduce S. typhi population by 1 log in ground beef” value in the assay on S. typhi [3] was 1.15 ± 0.02^a %. In the assay on S. typhi [7] (setting [8]), the “D10(kGy)” value is on record as 0.235 ± 0.0158^a kGy and the “irradiation dose for complete elimination of S. typhi” value turned out to be 1.25 kGy. In the assay with S. typhi [7] (vs control (0.519 kGy), ground beef, air, 4° C., carvacrol 1.0% alone or with ascorbic acid 0.5% and/or tetrasodium pyrophosphate 0.1%), the “Increase in Sensitivity” value amounted to 54.7%. Moreover, in the assay with E. coli [4], the “D10(kGy)” value is recorded as 0.145 ± 0.003^c kGy, the “irradiation dose necessary to completely eliminate E. coli from the chicken breast” value amounted to 0.72 kGy and the “Increase in Sensitivity” value worked out at 0%. Further, in the assay with S. typhi [5], the “D10(kGy)” value was 0.532 ± 0.071^b kGy, the “factor by which the effect was reduced” value was 4, the “irradiation dose necessary to completely eliminate S. typhi from the chicken breast” value was 2.3 kGy and the “Increase in Sensitivity” value is 17.3%. For the same molecule, the “days of storage after which complete inhibition was observed” value with E. coli [6] is reported as 50 days.

The values are drawn from patent US20050118310A1, “Formulations of compounds derived from natural sources and their use with irradiation for food preservation” (priority 2001, published 2005).
